Results from US20220348595A1, “COMPOUNDS AND METHODS FOR THE TARGETED DEGRADATION OF ESTROGEN RECEPTORS” (Endotarget Inc., priority 2021, published 2022).
pIC50: −log10 of the molar value.

Legend:
Assay type in all cases: cell-based
ER = target: T1, ER (Homo sapiens, UniProt P03372); assay: ER antagonism (T47D ERE luciferase), T47d-kb-Luc cells; conditions: read-out: IC50 (ER antagonistm)
T1 construct: endogenous in cells; host or cells: T47d-kb-Luc (T47D stably transfected with a luciferase reporter gene only)
T1 sequence (P03372 1-595): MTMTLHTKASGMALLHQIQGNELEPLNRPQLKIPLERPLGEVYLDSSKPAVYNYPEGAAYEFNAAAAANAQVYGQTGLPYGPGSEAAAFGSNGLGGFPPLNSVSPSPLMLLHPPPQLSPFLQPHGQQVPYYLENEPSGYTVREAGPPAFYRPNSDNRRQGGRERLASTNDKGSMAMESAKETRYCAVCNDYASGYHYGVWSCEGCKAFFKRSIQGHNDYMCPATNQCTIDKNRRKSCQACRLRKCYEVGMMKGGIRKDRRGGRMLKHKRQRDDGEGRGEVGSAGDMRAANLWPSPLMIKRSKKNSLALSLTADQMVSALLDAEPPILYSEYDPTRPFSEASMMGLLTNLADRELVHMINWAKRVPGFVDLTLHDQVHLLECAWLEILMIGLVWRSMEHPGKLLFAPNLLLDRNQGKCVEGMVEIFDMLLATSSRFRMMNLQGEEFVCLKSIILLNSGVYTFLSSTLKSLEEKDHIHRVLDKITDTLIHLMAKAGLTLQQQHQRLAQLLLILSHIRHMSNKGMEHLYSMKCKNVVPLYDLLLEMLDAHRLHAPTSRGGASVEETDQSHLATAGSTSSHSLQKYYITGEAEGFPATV
Procedure: The Antiestrogenic Activity of the Exemplary Compounds was Assessed in T47d-kb-Luc Stably Transfected Human Breast Cancer Cell
Antagonist activities were measured by the compound's ability to inhibit the activity of estradiol, the natural estrogen. Data were then normalized relative to the activity of the estradiol control and determinations were performed for five concentrations of the samples in quadruplicate in at least three separate experiments.

ERα = target: T2, ERα (Homo sapiens, UniProt P03372); assay: ER degradation in MCF-7 cells (Western blot); conditions: for DC50: ER degradation, 24 hours; for Dmax: MCF7, Maximal ER degradation, read-out: Dmax
T2 construct: endogenous in cells; host or cells: MCF-7
T2 sequence (P03372 1-595): T1 sequence (P03372 1-595)
Procedure: Degradation of ER in MCF-7 Breast Cancer Cells by Exemplary Compounds of the Present Disclosure
MCF-7 cells were plated in 24-well plates at a density of 10^5 cells/well. Media containing various drug concentrations were added on the day following plating (day 0) and allowed to incubate for 24 hours for Western blot. Media with the tested compound was changed every other day. Cells were lysed, snapped frozen in liquid nitrogen, and stored at −80° C. until assay for ERα. Media were removed and dishes were washed with 1× DPBS. Lysates were made by adding 150 μL of complete lysis solution and scraping cells into a 1.5 mL microcentrifuge tube. Lysates were placed on a rotisserie at 4° C. for 30 min and then spun at 4° C. at 12000 rcf for 10 min. Supernatants were assayed for protein content, snap-frozen, and stored a −80° C. if not run immediately. Then 50 μg of protein was subjected to Western blot protocol. Membranes were blocked and then incubated with 1:200 dilution of ERα antibody at 4° C. overnight followed by 1:10000 dilution of secondary antibody for 1 h at room temperature. They were then imaged on a LICOR infrared scanner.
FIGS. 1 to 10 show the ER degradation efficacy of compounds 3, 5, 9, 11, 12, 16, 18, 19, 20, 21, 23, 24, 25, 26, 27, 28, 29, 30, 31, 32, 33, 34, 37, 38, and 40 in MCF-7 cells at various concentrations. Degradation of ER was expressed as an DC50 value and was determined for exemplary compounds in Table 1 by calculation of the concentration of compound that was required to give a 50% reduction of ER expression level. Maximal degradation of ER was expressed as a Dmax value by measuring the highest percentage of ER reduction achieved by exemplary compound in the treatment concentration range.

[1] = tested on: MCF-7 breast cancer cells; assay: MCF-7 proliferation / cell viability assay; conditions: Homo sapiens, MCF7; MCF-7 proliferation with 0.1 nM 17-beta estradiol; read-out: IC50 (anti-proliferation)
Procedure: The Anti-Proliferative Activities of the Exemplary Compounds were Assessed by a Cell Viability Assay in MCF-7 Breast Cancer Cells
MCF-7 cells were plated in six-well plates at a density of 50,000 each well in 5% FBS DMEM medium. The cells were then treated with exemplary compounds or fulvestrant separately at 6 different doses ranging from 10^−10 M to 10^−5 M for 5 days, while equal volumes of DMSO were used as vehicle controls. Viable cell numbers were counted with a Z Series Coulter Counter instrument (Beckman-Coulter) following manufacturer's instructions. The ratio of drug treated viable cell numbers to vehicle treated viable cell numbers was defined as survival ratio where the control has the survival ratio of 100%.

Row | pIC50 (ER) | DC50 (ERα) | Dmax (ERα) | pIC50 [1] | Structure (SMILES)
1 | 7.30 to 8.00 | < 10 nM | > 90% | 7.30 to 8.00 | CC/C(=C(/c1ccc(OCCN2CCN(CC3CCN(c4ccc5c(c4)C(=O)N(C4CCC(=O)NC4=O)C5=O)CC3)CC2)cc1)c1ccc(B(O)O)cc1)c1ccccc1 (stereo not shown) [Compound 17, (Z)-(4-(1-(4-(2-(4-((1-(2-(2,6-dioxopiperidin-3-yl)-1,3-dioxoisoindolin-5-yl)piperidin-4-yl)methyl)piperazin-1-yl)ethoxy)phenyl)-2-phenylbut-1-en-1-yl)phenyl)boronic acid]
2 | < 7.30 | 10 to 50 nM | > 75% | < 7.30 | CC/C(=C(/c1ccc(OCCN2CCC(CN3CCN(c4ccc5c(c4)C(=O)N(C4CCC(=O)NC4=O)C5=O)CC3)CC2)cc1)c1ccc(B(O)O)cc1)c1ccccc1 (stereo not shown) [Compound 19, (Z)-(4-(1-(4-(2-(4-((4-(2-(2,6-dioxopiperidin-3-yl)-1,3-dioxoisoindolin-5-yl)piperazin-1-yl)methyl)piperidin-1-yl)ethoxy)phenyl)-2-phenylbut-1-en-1-yl)phenyl)boronic acid]
3 | < 7.30 | 10 to 50 nM | > 75% | < 7.30 | CC/C(=C(\c1ccc(OCCN2CCC(CN3CCN(c4ccc5c(c4)C(=O)N(C4CCC(=O)NC4=O)C5=O)CC3)CC2)cc1)c1ccc(B(O)O)cc1)c1ccccc1 (stereo not shown) [Compound 20, (E)-(4-(1-(4-(2-(4-((4-(2-(2,6-dioxopiperidin-3-yl)-1,3-dioxoisoindolin-5-yl)piperazin-1-yl)methyl)piperidin-1-yl)ethoxy)phenyl)-2-phenylbut-1-en-1-yl)phenyl)boronic acid]
4 | > 8.00 | < 10 nM | > 90% | > 8.00 | CC/C(=C(/c1ccc(OCCN2CCN(CC3CCN(c4ccc5c(c4)CN(C4CCC(=O)NC4=O)C5=O)CC3)CC2)cc1)c1ccc(B(O)O)cc1)c1ccccc1 (stereo not shown) [Compound 21, (Z)-(4-(1-(4-(2-(4-((1-(2-(2,6-dioxopiperidin-3-yl)-1-oxoisoindolin-5-yl)piperidin-4-yl)methyl)piperazin-1-yl)ethoxy)phenyl)-2-phenylbut-1-en-1-yl)phenyl)boronic acid]
5 | > 8.00 | < 10 nM | > 90% | > 8.00 | CC/C(=C(\c1ccc(OCCN2CCN(CC3CCN(c4ccc5c(c4)CN(C4CCC(=O)NC4=O)C5=O)CC3)CC2)cc1)c1ccc(B(O)O)cc1)c1ccccc1 (stereo not shown) [Compound 22, (E)-(4-(1-(4-(2-(4-((1-(2-(2,6-dioxopiperidin-3-yl)-1-oxoisoindolin-5-yl)piperidin-4-yl)methyl)piperazin-1-yl)ethoxy)phenyl)-2-phenylbut-1-en-1-yl)phenyl)boronic acid]
6 | 7.30 to 8.00 | < 10 nM | > 90% | 7.30 to 8.00 | CC/C(=C(\c1ccc(OCCN2CCN(CCC3CCN(c4ccc5c(c4)C(=O)N(C4CCC(=O)NC4=O)C5=O)CC3)CC2)cc1)c1ccc(B(O)O)cc1)c1ccccc1 (stereo not shown) [Compound 26, (E)-(4-(1-(4-(2-(4-(2-(1-(2-(2,6-dioxopiperidin-3-yl)-1,3-dioxoisoindolin-5-yl)piperidin-4-yl)ethyl)piperazin-1-yl)ethoxy)phenyl)-2-phenylbut-1-en-1-yl)phenyl)boronic acid]

Second part, the molecule before the results:

Row | Structure (SMILES) | pIC50 (ER) | DC50 (ERα) | Dmax (ERα) | pIC50 [1]
7 | CC/C(=C(/c1ccc(B(O)O)cc1)c1ccc(N2CCC(CNC3CCN(c4ccc5c(c4)C(=O)N(C4CCC(=O)NC4=O)C5)CC3)CC2)cc1)c1ccccc1 (stereo not shown) [Compound 14, (E)-(4-(1-(4-(4-(((1-(2-(2,6-dioxopiperidin-3-yl)-3-oxoisoindolin-5-yl)piperidin-4-yl)amino)methyl)piperidin-1-yl)phenyl)-2-phenylbut-1-en-1-yl)phenyl)boronic acid] | > 8.00 | < 10 nM | > 90% | > 8.00
8 | CC/C(=C(/c1ccc(OCCN2CCN(CCCNc3ccc4c(c3)C(=O)N(C3CCC(=O)NC3=O)C4=O)CC2)cc1)c1ccc(B(O)O)cc1)c1ccccc1 (stereo not shown) [Compound 15, (Z)-(4-(1-(4-(2-(4-(3-((2-(2,6-dioxopiperidin-3-yl)-1,3-dioxoisoindolin-5-yl)amino)propyl)piperazin-1-yl)ethoxy)phenyl)-2-phenylbut-1-en-1-yl)phenyl)boronic acid] | 7.30 to 8.00 | 10 to 50 nM | > 75% | 7.30 to 8.00
9 | CC/C(=C(\c1ccc(OCCN2CCN(CCCNc3ccc4c(c3)C(=O)N(C3CCC(=O)NC3=O)C4=O)CC2)cc1)c1ccc(B(O)O)cc1)c1ccccc1 (stereo not shown) [Compound 16, (E)-(4-(1-(4-(2-(4-(3-((2-(2,6-dioxopiperidin-3-yl)-1,3-dioxoisoindolin-5-yl)amino)propyl)piperazin-1-yl)ethoxy)phenyl)-2-phenylbut-1-en-1-yl)phenyl)boronic acid] | 7.30 to 8.00 | 10 to 50 nM | > 75% | 7.30 to 8.00
10 | CC/C(=C(/c1ccc(OCCN2CCN(CCN3CCN(c4ccc5c(c4)C(=O)N(C4CCC(=O)NC4=O)C5=O)CC3)CC2)cc1)c1ccc(B(O)O)cc1)c1ccccc1 (stereo not shown) [Compound 23, (Z)-(4-(1-(4-(2-(4-(2-(4-(2-(2,6-dioxopiperidin-3-yl)-1,3-dioxoisoindolin-5-yl)piperazin-1-yl)ethyl)piperazin-1-yl)ethoxy)phenyl)-2-phenylbut-1-en-1-yl)phenyl)boronic acid] | 7.30 to 8.00 | < 10 nM | > 90% | 7.30 to 8.00
11 | CC/C(=C(\c1ccc(OCCN2CCN(CCN3CCN(c4ccc5c(c4)C(=O)N(C4CCC(=O)NC4=O)C5=O)CC3)CC2)cc1)c1ccc(B(O)O)cc1)c1ccccc1 (stereo not shown) [Compound 24] | 7.30 to 8.00 | < 10 nM | > 90% | 7.30 to 8.00
12 | CC/C(=C(/c1ccc(OCCN2CCC(CCN3CCN(c4ccc5c(c4)C(=O)N(C4CCC(=O)NC4=O)C5=O)CC3)CC2)cc1)c1ccc(B(O)O)cc1)c1ccccc1 (stereo not shown) [Compound 27, (Z)-(4-(1-(4-(2-(4-(2-(4-(2-(2,6-dioxopiperidin-3-yl)-1,3-dioxoisoindolin-5-yl)piperazin-1-yl)ethyl)piperidin-1-yl)ethoxy)phenyl)-2-phenylbut-1-en-1-yl)phenyl)boronic acid] | < 7.30 | < 10 nM | > 90% | 7.30 to 8.00
13 | CC/C(=C(\c1ccc(OCCN2CCC(CCN3CCN(c4ccc5c(c4)C(=O)N(C4CCC(=O)NC4=O)C5=O)CC3)CC2)cc1)c1ccc(B(O)O)cc1)c1ccccc1 (stereo not shown) [Compound 28, (E)-(4-(1-(4-(2-(4-(2-(4-(2-(2,6-dioxopiperidin-3-yl)-1,3-dioxoisoindolin-5-yl)piperazin-1-yl)ethyl)piperidin-1-yl)ethoxy)phenyl)-2-phenylbut-1-en-1-yl)phenyl)boronic acid] | < 7.30 | < 10 nM | > 90% | 7.30 to 8.00
